Measurements as given in patent publication US20110151258A1, “PREPARATION OF RANOLAZINE” (DR. REDDY'S LABORATORIES LTD., priority 2008, published 2011).

Key:
Format in all cases: physicochemical
[1] = Specific surface area and span by light scattering (Malvern method); details: for span: particle size distribution span; for Specific surface area: method not stated at the place
Description: (§1) In an embodiment, the present application provides a pharmaceutical composition comprising ranolazine having a specific surface area more than about 0.1 m^2/g, or more than about 0.5 m^2/g, or more than about 1 m^2/g, or more than about 2 m^2/g, or more than about 3 m^2/g, or more than about 5 m^2/g. “Specific surface area” as used herein, unless otherwise defined refers to the total particle surface […]. The specific surface area of ranolazine of the present invention may be measured by a BET (Brunauer, Emmett and Teller) specific surface method, such as using a Micromeritics Gemini surface area analyzer, model 2365. Samples for analysis are degassed at 40° C. under reduced pressure and the determination of the adsorption of nitrogen gas at 77° K may be measured for relative pressures in the range of 0.05-0.3. Specific surface area and span of ranolazine of the present application may be measured by using light scattering equipment, such as, for example, a Malvern Master Sizer 2000 (helium neon laser source, ranolazine suspended in light liquid paraffin, size range: 0.01 μm to 3000 μm).

[2] = Particle size distribution by light scattering (Malvern Master Sizer 2000); details: for Particle size distribution: D10: 10th volume percentile particle size; for Particle size distribution: D50: 50th volume percentile particle size; for Particle size distribution: D90: 90th volume percentile particle size
Description: Particle size distributions of ranolazine particles may be measured by any technique known in the art. For example, particle size distributions of ranolazine particles may be measured using light scattering equipment, such as, for example, a Malvern Master Sizer 2000 from Malvern Instruments Limited, Malvern, Worcestershire, United Kingdom (helium neon laser source, ranolazine suspended in light liquid paraffin, size range: 0.01 μm to 3000 μm).

[3] = Specific surface area by BET method
Description: as §1

[4] = Bulk density (USP Test 616, method 2)
Description: In an embodiment, the present application provides ranolazine having bulk densities less than about 0.8 g/mL, or less than about 0.5 g/mL, or less than about 0.3 g/mL. Bulk density may be determined using Test 616 “Bulk Density and Tapped Density,” as in United States Pharmacopoeia 29, United States Pharmacopeial Convention, Inc., Rockville, Md., 2005, in method 2.

| Specific surface area by Malvern method [1] | span [1] | Particle size distribution: D10 [2] | Particle size distribution: D50 [2] | Particle size distribution: D90 [2] | specific surface area by BET method [3] | Specific surface area [1] | bulk density after tapping ([4]; after tapping) | bulk density before tapping ([4]; before tapping) | Structure (SMILES) |
| --- | --- | --- | --- | --- | --- | --- | --- | --- | --- |
| 1.99 m^2/g | 1.905 | 1.324 μm | 5.140 μm | 11.116 μm | 2.54 m^2/g | – | – | – | COc1ccccc1OCC(O)CN1CCN(CC(=O)Nc2c(C)cccc2C)CC1 (stereo not shown) [Example 17, Ranolazine] |
| – | 1.611 | 4.420 μm | 16.147 μm | 30.439 μm | – | 0.705 m^2/g | 0.477 g/mL | 0.353 g/mL | COc1ccccc1OCC(O)CN1CCN(CC(=O)Nc2c(C)cccc2C)CC1 (stereo not shown) [Example 18, Ranolazine] |
| 1.63 m^2/g | 1.817 | 5.026 μm | 18.770 μm | 39.137 μm | 0.46 m^2/g | – | – | – | COc1ccccc1OCC(O)CN1CCN(CC(=O)Nc2c(C)cccc2C)CC1 (stereo not shown) [Example 16, Ranolazine] |
| – | 1.823 | 13.262 μm | 41.574 μm | 89.060 μm | – | 0.291 m^2/g | – | – | COc1ccccc1OCC(O)CN1CCN(CC(=O)Nc2c(C)cccc2C)CC1 (stereo not shown) [Example 19, Ranolazine] |
| – | 1.833 | 6.311 μm | 22.490 μm | 47.539 μm | – | 0.539 m^2/g | – | – | COc1ccccc1OCC(O)CN1CCN(CC(=O)Nc2c(C)cccc2C)CC1 (stereo not shown) [Example 14, Ranolazine] |
| – | 2.813 | 5.272 μm | 18.656 μm | 57.748 μm | – | 0.655 m^2/g | – | – | COc1ccccc1OCC(O)CN1CCN(CC(=O)Nc2c(C)cccc2C)CC1 (stereo not shown) [Example 15, Ranolazine] |
